One may read the IC50 as the concentration at which inhibition is half-maximal. Low readings indicate greater potency, high ones weaker potency. The solubility is the dissolved amount per volume that the medium holds.

One data set deals with CYP2C8 (Homo sapiens, UniProt P10632). Briefly: CYP inhibition, 2C8. The data set is classed as in vitro ADME.
A further data set addresses T1, hERG (Homo sapiens, UniProt Q12809).
T1 construct: host or cells: membrane preparations
Briefly: Binding to membrane preparations of hERG using a radiolabeled antagonist. On the procedure: An in vitro evaluation of the binding of Compound 8 to membrane preparations of hERG using a radiolabeled antagonist was performed.
On the technique in general: The hERG channel carries a current that helps repolarise heart muscle cells.

The next data set is described as follows: physchem. The data set is classed as physicochemical. Particulars: for solubility at 1 hr: pH 4, aqueous buffer, thermodynamic from solid, Saturated solubility. On the procedure: The formulations were prepared by stirring at room temperature for 1 hr. They were protected from light to minimize the formation of the amine product (Impurity 1) during the formulation.
The drug product process begins by preparation of a chilled, solution of 2.5% mannitol and 5 mM citrate buffer (pH about 4-5) solution to which Compound 8 drug substance is added at concentration of 5 mg/mL. […] The bulk solution is filter (0.2 μm) sterilized, aseptically filled into vials, and lyophilized. To minimize Compound 8 degradation, the bulk solution is maintained chilled and protected from light during processing. Lyophilizing Compound 8 as a dry powder was selected as the best means to minimize hydrolysis during storage. Finally, filter sterilization was chosen as the most benign means to sterilize the drug product.

Data set [1] has as its system MIA Paca-2 human pancreatic adenocarcinoma. Briefly: MIA Paca-2 pancreatic xenograft model. Particulars: mouse, in vivo, 10 mg/kg. It is filed as in vivo, mouse.

T1 sequence (Q12809 whole entry): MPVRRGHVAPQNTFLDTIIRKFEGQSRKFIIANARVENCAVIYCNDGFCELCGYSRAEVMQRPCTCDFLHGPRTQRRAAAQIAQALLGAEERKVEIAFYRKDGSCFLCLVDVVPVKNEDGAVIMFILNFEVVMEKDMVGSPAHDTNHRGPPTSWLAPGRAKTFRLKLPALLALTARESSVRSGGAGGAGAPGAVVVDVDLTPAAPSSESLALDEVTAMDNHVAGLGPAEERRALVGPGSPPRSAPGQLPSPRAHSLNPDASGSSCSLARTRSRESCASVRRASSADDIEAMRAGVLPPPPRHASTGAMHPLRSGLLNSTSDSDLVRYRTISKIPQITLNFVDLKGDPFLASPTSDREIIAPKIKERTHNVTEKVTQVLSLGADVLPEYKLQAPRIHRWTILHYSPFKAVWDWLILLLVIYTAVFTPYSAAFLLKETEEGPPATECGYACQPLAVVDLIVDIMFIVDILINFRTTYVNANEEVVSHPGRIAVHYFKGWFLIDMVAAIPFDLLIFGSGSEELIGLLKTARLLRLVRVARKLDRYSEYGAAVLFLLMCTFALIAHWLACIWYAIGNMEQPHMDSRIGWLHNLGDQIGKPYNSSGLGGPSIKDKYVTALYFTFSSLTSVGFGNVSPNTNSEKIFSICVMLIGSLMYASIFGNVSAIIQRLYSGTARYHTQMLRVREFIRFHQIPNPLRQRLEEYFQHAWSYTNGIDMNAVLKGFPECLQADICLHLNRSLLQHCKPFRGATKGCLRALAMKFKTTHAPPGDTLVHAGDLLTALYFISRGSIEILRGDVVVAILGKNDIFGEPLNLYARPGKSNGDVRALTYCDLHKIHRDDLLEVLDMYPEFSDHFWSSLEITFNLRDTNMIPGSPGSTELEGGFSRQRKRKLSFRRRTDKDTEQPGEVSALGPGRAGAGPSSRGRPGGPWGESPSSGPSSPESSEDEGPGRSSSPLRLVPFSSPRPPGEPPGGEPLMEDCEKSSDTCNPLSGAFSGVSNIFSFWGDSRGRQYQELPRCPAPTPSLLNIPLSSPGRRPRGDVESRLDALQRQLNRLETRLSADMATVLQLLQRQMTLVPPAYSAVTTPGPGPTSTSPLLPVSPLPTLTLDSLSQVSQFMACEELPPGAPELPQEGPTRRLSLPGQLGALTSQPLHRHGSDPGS
Chain of CYP2C8 (P10632 whole entry): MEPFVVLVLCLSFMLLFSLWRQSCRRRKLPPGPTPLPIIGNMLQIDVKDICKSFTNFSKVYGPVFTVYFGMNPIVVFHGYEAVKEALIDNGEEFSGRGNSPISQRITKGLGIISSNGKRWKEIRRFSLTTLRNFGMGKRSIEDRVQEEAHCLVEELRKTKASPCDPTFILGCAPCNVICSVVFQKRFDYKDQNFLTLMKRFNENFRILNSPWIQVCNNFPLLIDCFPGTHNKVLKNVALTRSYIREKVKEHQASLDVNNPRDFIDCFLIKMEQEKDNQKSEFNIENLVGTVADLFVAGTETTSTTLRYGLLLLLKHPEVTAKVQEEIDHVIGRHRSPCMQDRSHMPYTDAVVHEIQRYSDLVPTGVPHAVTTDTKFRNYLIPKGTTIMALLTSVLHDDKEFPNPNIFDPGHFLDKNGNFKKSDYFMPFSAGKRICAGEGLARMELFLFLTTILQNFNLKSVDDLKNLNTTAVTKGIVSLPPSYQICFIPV

At CYP2C8, `CC(=O)[O][Pt]([NH2])([NH2])([Cl])([Cl])[O]C(=O)NCCCCCN1C(=O)C=CC1=O` [Compound 8] had an IC50 of 680 nM. The hERG binding finding entry on hERG (3 uM, conjugated to human serum albumin) is listed as “no evidence for significant cardiovascular toxicity”; at hERG (10 uM, unconjugated to human serum albumin), “no evidence for significant cardiovascular toxicity”. For the same molecule, the figures for the solubility at 1 hr in “physchem” (overall estimate) and in “physchem” (range of five different lots) were about 9 mg/mL and 8 to 23 mg/mL, respectively. The molecule also displayed a solubility in “physchem” (pH 4.5, aqueous buffer, Saturated solubility of the drug substance) of 16 to 17 mg/mL. For the same molecule, the “Mean maximal BW loss” value in data set [1] came to 3.7%. Further, in data set [1], the Treatment-related adverse effects entry was “No treatment-related adverse effects”.

The values are drawn from US20190350940A1, “PLATINUM COMPOUNDS, COMPOSITIONS, AND USES THEREOF” (priority 2015, published 2019).
